Assay results taken from patent US7820642B2, “Nandrolone 17β-carbonates” (The United States of America as represented by the …, priority 2005, dated 2010).
“Also recorded” adds a separate entry of the source.

How the values were obtained:
Assay type in all cases: in vivo, rat
[1] = tested on: castrate Sprague-Dawley male rats; assay: Duration of androgenic activity after a single subcutaneous injection (ventral prostate weight, AUC); settings: for AUC of ventral prostate weight (duration of androgenic activity), standards: historical data, 1.2 mg single subcutaneous injection, testosterone undecanoate in aqueous suspension, testosterone enanthate in sesame oil; for AUC of ventral prostate weight (duration of androgenic activity): 14 weeks
Protocol: Duration of androgenic activity was determined as follows. Immature (22 days of age) male rats of the Sprague-Dawley CD strain were orchidectomized under METOFANE anesthesia and randomly assigned to groups of forty or more animals. Animals were maintained under standard conditions of housing and had free access to food and water. Illumination was controlled for 14-hour periods of light and 10 hours of darkness. Animals received a single subcutaneous injection of 0.6 mg of test material in aqueous suspending vehicle (ASV) and/or an oily vehicle (10% ethanol/sesame oil, sesame oil containing 5 mg/ml chlorobutanol as a preservative or ethyl oleate) on the day of surgery. Controls received vehicle alone. Testosterone enanthate in sesame oil was used as a standard. In cases where the test material was not solid at room temperature, i.e., a wax or oil, 10% ethanol/sesame oil or ethyl oleate was used as a vehicle. Five rats from each group were sacrificed at weekly or biweekly intervals and seminal vesicle and ventral prostate glands were excised, cleaned of adherent fat and connective tissue and weighed to the nearest 0.1 mg. Ventral prostate weight was used as the endpoint because it is the more sensitive organ to androgenic stimulation. Area under the curve (AUC) was calculated by the trapezoidal rule.
Each data point represents the mean (n=5) and standard error of the mean (SEM) prostate weight for each time period. […] In FIG. 8, the data for 1.2 mg dose groups are shown together with historical data for testosterone undecanoate in aqueous suspension and testosterone enanthate in sesame oil as standards. Both testosterone undecanoate and testosterone enanthate are commercially available.

[2] = tested on: castrate Sprague-Dawley male rats; assay: Androgenic activity, Hershberger test (ventral prostate weight); settings: for Biological activity Potency Ratio: oral in 10% ethanol/sesame oil, methyltestosterone standard = 1.00, FIG. 11
Protocol: The androgenic activity was tested as follows (see, Hershberger et al., Proc. Soc. Exptl. Biol. Med., 83: 175-180 (1953)). Immature (approximately 21 day old) male rats of the Sprague-Dawley strain were orchidectomized under METOFANE® anesthesia and randomly assigned to groups of ten animals for each dose level of test material and vehicle controls. Animals were maintained under standard conditions of housing and had free access to food and water. Illumination was controlled for 14-hour periods of light and 10 hours of darkness. Test compounds were dissolved in 10% ethanol/sesame oil and administered by gavage (oral) or subcutaneous injection daily for seven consecutive days starting on the day of surgery. Animals were sacrificed 24 hours after the last dose and the ventral prostate and seminal vesicles excised, cleaned of fat and connective tissue, blotted on moist filter paper and weighed to the nearest 0.1 mg. Ventral prostate weight was used as the endpoint because ventral prostate is the more sensitive organ to androgenic stimulation.
Statistical analysis was performed by conventional methods using a PROPHET data management system operating on SUN Microsystems OS 4.1.1 (see e.g., Bliss, Cl (1952) The Statistics of Bioassay, New York, Academic Press; Hollister, C (1988), Nucleic Acids Research, 16:1873-1875.
Each data point represents the mean (n=10) and standard error of the mean (SEM) prostate weight for each dose level. The potency ratio and 95% confidence index are set forth below.

[3] = Serum levels of dimethandrolone (CDB-1321) and immunoreactive metabolites by radioimmunoassay
Protocol: Serum levels of testosterone and CDB-1321 were determined as follows. Rats from a duration of androgenic activity study were exsanguinated at autopsy, serum prepared by allowing blood to clot at room temperature and the sample frozen for subsequent radioimmunoassay. A radioimmunoassay for the free alcohol, 7a, 11β-dimethyl-19-nortestosterone, was developed using antisera generated in rabbits against the 3-carboxymethyloxime-BSA conjugate and employing the corresponding histamine conjugate for iodination as tracer.

[4] = tested on: luteinizing hormone (rLH); assay: Serum rLH in castrate male rats
Protocol: FIG. 14 depicts the serum levels of rLH as a function of time for groups 2 and 4 of the animals. Serum rLH were measured in the blood from castrate male rats following fourteen daily 12 mg/kg oral doses of CDB-4719A (dimethandrolone 17β-decylcarbonate, filled circles, group 2) or CDB-4521C (dimethandrolone 17β-undecanoate, open triangles, group 4) in 10% ethanol/sesame oil on days 0-13. Samples from weeks −1 to 6 or from weeks 7 to 9 and repeats were assayed as described in the protocols MEL-480AD using [^125I]-rLH or MEL-480AE, AG using [^125I]-rLH. The limit of detection shown as dotted line, or EC90, was the mean of 0.13, 0.14, or 0.16 in the first assay and 0.17, 0.22, or 0.21 ng/ml in the second series of assays based on 200 μl of serum per tube.
FIG. 15 depicts the serum levels of rLH as a function of time for groups 1 and 3 of the animals. Serum rLH were measured in the blood from castrate male rats following a single 12 mg/kg subcutaneous injection of CDB-4719A (dimethandrolone 17β-decylcarbonate, filled circles, group 1) or CDB-4521C (dimethandrolone 17β-undecanoate, open triangles, group 3) in an aqueous suspending vehicle on day 0. Samples from weeks −1 to 6 or from weeks 7 to 22 and repeats were assayed as described in the protocols MEL-480AD using [^125I]-rLH or MEL-480AE, AG, AH using [^125I]-rLH. The limit of detection shown as dotted line, or EC90, was the mean of 0.13, 0.14, or 0.16 in the first assay and 0.17, 0.22, or 0.21 ng/ml in the second series of assays based on 200 μl of serum per tube.
Carbonates of the invention, in embodiments, can be used to suppress luteinizing hormone in a mammal for extended periods of time. […] CDB-4719A (dimethandrolone 17β-decylcarbonate) was administered to castrate male rats, daily at 12 mg/kg oral doses, and CDB-4521C (dimethandrolone 17β-undecanoate) was administered in 10% ethanol/sesame oil, on days 0-13. […] This observation could have advantageous clinical implications, for example, in obtaining sustained suppression of the luteinizing hormone or hormone replacement therapy. In addition, this could have an advantage by providing a facile treatment using oral compositions such as tablets or capsules of the carbonates of the invention in suppressing hormone levels. Such treatment can be advantageous relative to a treatment involving parenteral (e.g., subcutaneous) administration of a drug such as the ester drug. Patient compliance is better with oral formulations than injections.
FIG. 15 provides a comparison between CDB-4719A (dimethandrolone 17β-decylcarbonate) and CDB-4521C (dimethandrolone 17β-undecanoate). A single dose (12 mg/kg) of the compound was administered to castrate male rats by subcutaneous injection in an aqueous suspending vehicle on day 0. The serum rLH concentration was monitored over a 22-week period and beyond.

[5] = oral, daily for 7 days in 10% ethanol/sesame oil, CDB 110 (methyltestosterone) = 1.000 assigned, FIG. 5, ranges did not pass all significance tests
[6] = subcutaneous injection, daily for 7 days, CBD-111 (testosterone) = 1.000 assigned, FIG. 6, footnote 2 values did not pass all significance tests
[7] = single subcutaneous injection of 0.6 mg in aqueous suspending vehicle
[8] = single subcutaneous injection of 1.2 mg in aqueous suspending vehicle
[9] = fourteen daily 12 mg/kg oral doses in 10% ethanol/sesame oil, days 0-13, FIG. 14

Structure (SMILES): CCCCCCC(=O)O[C@H]1CC[C@H]2[C@@H]3CCC4=CC(=O)CC[C@]4(C)[C@H]3CC[C@]12C [CDB-112, testosterone enanthate, reference compound]
- AUC of ventral prostate weight (duration of androgenic activity), standards [1]: 760 mg·week

Structure (SMILES): CCCCCCCCCCC(=O)O[C@H]1CC[C@H]2[C@@H]3CCC4=CC(=O)CC[C@]4(C)[C@H]3CC[C@]12C [CDB-3122E, testosterone undecanoate, reference compound]
- AUC of ventral prostate weight (duration of androgenic activity), standards [1]: 494 mg·week

Structure (SMILES): CCCCCCCCCCCCOC(=O)O[C@H]1CC[C@H]2[C@H]3[C@H]([C@@H](C)C[C@]12C)[C@H]1CCC(=O)C=C1C[C@H]3C [CDB-4730, 17β-Dodecyloxycarbonyloxy-7α,11β-dimethylestr-4-en-3-one]
- Duration of androgenic activity (in words) ([1]; single subcutaneous injection in aqueous vehicle): far more potent; also recorded: exhibited similar long-acting activity
- Androgenic activity Potency Ratio [2, 5]: 0.97-3.82
- Androgenic activity Potency Ratio ([2]; oral, daily for 7 days in 10% ethanol/sesame oil, CDB 110 (methyltestosterone) = 1.000 assigned, FIG. 5, ranges did not pass all significance tests, listed as 4730): 0.97-3.82^1,2
- Potency as percent of the subcutaneous standard, testosterone ([2]; subcutaneous injection): 5%
- Androgenic activity Potency Ratio [2, 6]: 0.05^1,2
- Serum levels of dimethandrolone and immunoreactive metabolites over time ([3]; single subcutaneous dose of 0.6 or 1.2 mg per rat in aqueous suspending vehicle, FIG. 16): decreased with time as expected

Structure (SMILES): CC1C[C@@]2(C)C(=CC[C@@H]2OC(=O)OC23CC4CC(CC(C4)C2)C3)[C@H]2[C@H]1[C@H]1CCC(=O)C=C1C[C@H]2C (stereo partly drawn) [CDB-4750A, 17β-Adamantyloxycarbonyloxy-7α,11-dimethylestra-4,14-dien-3-one]
- AUC of ventral prostate weight (duration of androgenic activity) [1, 7]: 326 mg·week
- AUC of ventral prostate weight (duration of androgenic activity) [1, 8]: 759 mg·week

Structure (SMILES): CCCCCCCCCCC(=O)O[C@H]1CC[C@H]2[C@H]3[C@H]([C@@H](C)C[C@]12C)[C@H]1CCC(=O)C=C1C[C@H]3C [CDB-4521C, dimethandrolone 17β-undecanoate, reference compound]
- Serum rLH after administration was discontinued [4, 9]: bounced back and increased beyond the pretreatment level
- Serum rLH during administration [4, 9]: remained suppressed
- Serum rLH up to 16 weeks post administration ([4]; single 12 mg/kg subcutaneous injection in aqueous suspending vehicle on day 0, FIG. 15): remains suppressed
- Serum rLH after 16 weeks ([4]; single 12 mg/kg subcutaneous injection in aqueous suspending vehicle on day 0, monitored over 22 weeks, FIG. 15): rose after 16 weeks

Structure (SMILES): CCCCCCOC(=O)O[C@H]1CC[C@H]2[C@H]3[C@H]([C@@H](C)C[C@]12C)[C@H]1CCC(=O)C=C1C[C@H]3C [CDB-4731, 17β-Hexyloxycarbonyloxy-7α,11β-dimethylestr-4-en-3-one]
- Androgenic activity Potency Ratio [2, 5]: 1.18-3.27
- Androgenic activity Potency Ratio ([2]; oral, daily for 7 days in 10% ethanol/sesame oil, CDB 110 (methyltestosterone) = 1.000 assigned, FIG. 5, ranges did not pass all significance tests, listed as 4731): 1.18-3.27^1,2
- Androgenic activity Potency Ratio [2, 6]: 32
- Androgenic activity Potency Ratio ([2]; subcutaneous injection, daily for 7 days, CBD-111 (testosterone) = 1.000 assigned, FIG. 6, footnote 2 values did not pass all significance tests, listed as 4731): 32.0^1,2

Structure (SMILES): CCCCCCCCCC(=O)OC1CCC2C3C(C)CC4=CC(=O)CCC4C3C(C)CC12C (stereo not drawn) [CDB-4756, dimethandrolone decanoate, reference compound]
- Biological activity Potency Ratio [2]: 2.13-7.56

Structure (SMILES): CCCCCCCCCCOC(=O)O[C@H]1CC[C@H]2[C@@H]3CCC4=CC(=O)CC[C@@H]4[C@H]3[C@@H](C)C[C@]12C [CDB-4757, 11β-Methyl-17β-decyloxycarbonyloxyestr-4-en-3-one]
- Biological activity Potency Ratio [2]: 1.96

Structure (SMILES): C[C@]12CCC(=O)C=C1CC[C@@H]1[C@@H]2CC[C@@]2(C)[C@H]1CC[C@]2(C)O [CDB-110B, methyltestosterone, reference compound]
- Biological activity Potency Ratio [2]: 1.00 (assigned)

Structure (SMILES): CCCCCCCCCCCCOC(=O)OC1CC[C@H]2[C@@H]3CCC4=CC(=O)CC[C@@H]4[C@H]3[C@@H](C)C[C@]12C (stereo partly drawn) [CDB-4754, 11β-Methyl-17-dodecyloxycarbonyloxy estr-4-en-3-one]
- AUC of ventral prostate weight (duration of androgenic activity) [1, 7]: 564 mg·week
- AUC of ventral prostate weight (duration of androgenic activity) [1, 8]: 974 mg·week

Structure (SMILES): C[C@@H]1CC2=CC(=O)CC[C@@H]2[C@@H]2[C@@H]1[C@@H]1CC[C@H](O)[C@@]1(C)C[C@@H]2C [CDB-1321, 7a, 11β-dimethyl-19-nortestosterone, reference compound]
- Serum levels of the free alcohol after giving the free alcohol itself ([3]; first 3 weeks, limit of detection 63 pg/ml): barely above the limit of detection
